In paper PMC6028883, “A highly glucose-tolerant GH1 β-glucosidase with greater conversion rate of soybean isoflavones in monogastric animals” (Journal of Industrial Microbiology & Biotechnology, 2018):

Experiments:
Bgl3A = biological target: T1, Bgl3A (Evansstolkia leycettana, UniProt A0A1B0VFN7); assay: inhibition of daidzin hydrolysis, HPLC; format: biochemical; conditions: 0.5 mM daidzin, glucose printed as 10 mM but 80 mM stock diluted fourfold; pH 6.5, 37 °C, 5 min
T1 construct: laboratory stock enzyme
T1 sequence (A0A1B0VFN7 entry or part of it): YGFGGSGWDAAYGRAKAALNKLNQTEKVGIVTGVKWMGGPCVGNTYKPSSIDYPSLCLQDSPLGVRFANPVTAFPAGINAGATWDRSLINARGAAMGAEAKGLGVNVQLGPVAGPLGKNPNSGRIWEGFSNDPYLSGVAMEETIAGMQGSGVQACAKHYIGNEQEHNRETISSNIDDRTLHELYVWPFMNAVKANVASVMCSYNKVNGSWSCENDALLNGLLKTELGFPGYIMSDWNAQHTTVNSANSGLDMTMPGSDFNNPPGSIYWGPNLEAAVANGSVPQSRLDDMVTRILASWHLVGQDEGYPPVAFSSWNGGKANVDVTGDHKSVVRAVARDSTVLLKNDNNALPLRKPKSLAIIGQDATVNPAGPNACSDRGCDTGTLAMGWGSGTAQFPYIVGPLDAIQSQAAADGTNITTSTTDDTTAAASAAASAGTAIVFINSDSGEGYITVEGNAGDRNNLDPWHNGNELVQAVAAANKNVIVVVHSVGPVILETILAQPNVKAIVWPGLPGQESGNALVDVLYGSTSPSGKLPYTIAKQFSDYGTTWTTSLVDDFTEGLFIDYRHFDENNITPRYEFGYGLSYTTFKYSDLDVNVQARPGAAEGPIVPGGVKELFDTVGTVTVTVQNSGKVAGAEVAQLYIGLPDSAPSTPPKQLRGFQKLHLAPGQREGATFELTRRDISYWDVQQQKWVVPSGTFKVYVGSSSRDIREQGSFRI

AsBG1 = AsBG1 (Alicyclobacillus sp. A4, UniProt A0A220YLM5); assay: inhibition of cellobiose hydrolysis, ion exchange chromatography; format: biochemical; conditions: read-out: % inhibition at 10 mM
Sequence of AsBG1 (A0A220YLM5 1-454 limits assumed): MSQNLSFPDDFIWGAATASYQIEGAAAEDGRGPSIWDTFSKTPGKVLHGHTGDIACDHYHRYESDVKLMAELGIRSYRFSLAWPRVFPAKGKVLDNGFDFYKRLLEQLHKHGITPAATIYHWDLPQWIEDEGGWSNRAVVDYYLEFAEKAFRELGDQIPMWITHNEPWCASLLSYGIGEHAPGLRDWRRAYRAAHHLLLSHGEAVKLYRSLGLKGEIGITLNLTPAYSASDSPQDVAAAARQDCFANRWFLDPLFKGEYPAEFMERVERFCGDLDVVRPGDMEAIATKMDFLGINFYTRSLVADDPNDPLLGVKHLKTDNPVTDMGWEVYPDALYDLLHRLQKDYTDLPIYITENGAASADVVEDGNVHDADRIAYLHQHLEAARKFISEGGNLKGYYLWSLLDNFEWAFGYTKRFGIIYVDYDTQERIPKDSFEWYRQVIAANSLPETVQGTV

[1] = test system: O=[N+]([O-])c1ccc(O[C@@H]2O[C@H](CO)[C@@H](O)[C@H](O)[C@H]2O)cc1; assay: initial rate, Lineweaver-Burk plot; format: biochemical, Alicyclobacillus sp. A4; conditions: pH 6.5, 55 °C, 5 min, 0.2-1.5 mM pNPG

inhibition at 10000 µM (AsBG1) [%]	Molecule	inhibition of daidzin hydrolysis, HPLC (Bgl3A)	Km [1] [µM]
~60	OC[C@H]1OC(O)[C@H](O)[C@@H](O)[C@@H]1O (stereo partly drawn) [glucose]	the conversion efficiency of daidzin by Bgl3A was seriously impeded by glucose	
	AsBG1 (Alicyclobacillus sp. A4)		400
